Reference: US20090005424A9, “Composition and Method for Treating Fibrotic Diseases” (priority 2005, published 2009)

Tests used:
[1] = tested on: ICR mice injected with bleomycin; test: Bleomycin-induced mouse pulmonary fibrosis, histological score of lung tissue; format: in vivo; details: AKF-PD and PFD 500 mg/kg, captopril 12.5 mg/kg by gavage day 1 to 28, Szapiel's method
Experimental: Under regular care condition, 7-10 weeks old, male, institute of cancer research (ICR) mice, weight 28-39 g, were randomly grouped as normal control, disease, disease/AKF-PD, disease/PFD and disease Captopril group.
Control group was injected with normal saline once day from day 2 to 15 days. Disease, disease/AKF-PD, disease/PFD and disease/captopril groups were injected with bleomycin once day from day 2 to 15. Control and disease groups were given 0.5% CMC by gavage once a day from day 1 to day 28. 500 mg/kg of AKF-PD CMC suspension and PD CMC suspension and 12.5 mg/kg captopril in saline were administered to respective groups by gavage once day from day 1 to day 28. All animals were sacrificed on day 29 and their lungs were removed for pathological (HE staining) examination.
Histological scoring for the lung tissue was done according Szapiel's method.

[2] = tested on: SD rat, Unilateral Ureteral Obstruction (UUO) model; test: Rat UUO model of renal interstitial fibrosis, histological score (Example 8); format: in vivo; details: UUO rats; AKF-PD 500 mg/kg/d, Enalapril 10 mg/kg/d by gavage; 14 days post surgery; Radford's method
Experimental: Anti-fibrotic effect of AKF-PD was tested on a SD rat model for renal interstitial fibrosis induced by surgical ligation of single side ureter (Unilateral Ureteral Obstruction, UUO, model). Eight weeks old male SD rats (180 g˜220 g) were randomly divided into sham surgical group, disease model group, Enalapril (10 mg/kg/d) group and AKF-PD (500 mg/kg/d) group. […] The animals of the sham surgical group experienced the same surgical procedure except the ligation step. The respective drugs were administrated by gavage to rats in the groups of Enalapril and AKF-PD from one day prior to the procedure to 14 days post surgical procedure. Normal saline was administrated in a similar fashion to the rats in the groups of disease model and sham surgical. The animals were sacrificed 14 days after surgical procedure and their left kidney were removed for pathological (HE staining) examination. Histological scoring for interstitial compartment was done according to Radford's method (Radford et al., Predicting renal outcome in IgA nephropathy. J. Am. Soc. Nephrol. 8: 199-207(1997)).

Kidney Fibroblast = test: MTT proliferation assay, mouse kidney fibroblast; format: cell-based
Experimental: (§1) Cell proliferation was measured by MTT assay. DMEM with 10% fetal serum was used as cell culture medium. The cells were prepared in suspension (1×10^5/ml), and 100 μL of the suspension was transferred to each well of a 96 wells plate. Once the cells were attached to the plastic, the culture was changed to serum free medium and continued for another 24 hours. The serum free medium was aspirated, and various concentrations of 1-(3′-fluorophenyl)-5-methyl-2(1H)-pyridone (AKF-PD) 1-(3′-bromophenyl)-5-methyl-2(1H)-pyridone (AKF-BR) or PIRFENIDONE (PFD) in 10% serum medium were added into each well with 5 replicates for each concentration. The cells were stained with MTT (10 μL per well) at 24, 48, and 72 hours post drug treatment. After 4 hrs of incubation, the medium with MTT was aspirated from each well. One hundred μL MTT solvent was added to each well for 15 min. The dissolved MTT was then measured with a plate reader at 570 nm.

[3] = tested on: Rat Pulmonary Fibroblasts; test: MTT proliferation assay, rat pulmonary fibroblasts; format: cell-based
Experimental: as §1, with “and incubated” for “and continued”, “hours. Then, the” for “hours. The”, “(AKF-PD) or 1-(3′-bromophenyl)-5-Methyl-2(1H)-Pyridone” for “(AKF-PD) 1-(3′-bromophenyl)-5-methyl-2(1H)-pyridone (AKF-BR)”, “24, or 48” for “24, 48, and 72”, “15 min, and the” for “15 min. The”, “was” for “was then”

fibroblast = test: Inhibition of fibroblast, side-by-side comparison of substituents; format: cell-based; details: structural formula II, n=1
[4] = tested on: Kun Ming (KM) mice infected with Schistosoma miracidium; test: Schistosomial liver fibrosis in Kun Ming mice, egg granuloma area and immunohistology; format: in vivo; details: all after Pyquiton 650 mg/kg 4 days, AKF-PD 500 mg/kg daily gavage, γ-interferon 50,000 unit daily i.m., 8 weeks
Description: Kun Ming (KM) mice were infected with Schistosoma miracidium to induce schistosomial liver fibrosis. […] Ten Schistosoma miracidium were placed on shaved abdominal skin of each mouse for infection. […] Five hundred mg/kg AKF-PD were given daily by gavage to the disinfected mice of infected/AKF-PD group. The disinfected mice were given (i.m.) 50,000 unit γ-interferon daily. […] Drug or normal saline treatment was continued for 8 weeks. All mice were sacrificed one week after discontinue of drug treatment, and the left lobe of liver from each mouse was taken for pathological examination. Examination of HE-stained slices of liver tissue were carried out as follows. In general, after 16 weeks of Schistosoma miracidia infection, the area of schistosomo egg granuloma would directly correlate to the severity of liver fibrosis. Therefore, the area of schistosomo egg granuloma was measured using a high-resolution, color pathology graphic analyzer (HPIAS-1000). The sum of area of 5 granuloma with abundant eggs and the sum of area of 5 granuloma with few eggs were measured for each slice.

Molecule: C[C@H](CS)C(=O)N1CCC[C@H]1C(=O)O [Captopril]
- Histological Score for Lung Tissue, Mean [1]: 2.7143

Molecule: CCOC(=O)[C@H](CCc1ccccc1)N[C@@H](C)C(=O)N1CCC[C@H]1C(=O)O [Enalapril, reference compound]
- Histological Score for Interstitial Compartment [2]: 9.21 ± 0.64

Molecule: Cc1ccc(=O)n(-c2cccc(Br)c2)c1 [AKF-BR, 1-(3′-bromophenyl)-5-methyl-2(1H)-pyridone]
- inhibition of proliferation of kidney fibroblast (Kidney Fibroblast): capable of inhibiting the proliferation of kidney fibroblast
- Optical Density at 570 nm (Kidney Fibroblast; 100 μg/ml, 24 h): 0.5937 ± 0.0307
- Optical Density at 570 nm (Kidney Fibroblast; 100 μg/ml, 48 h): 0.5811 ± 0.0161
- Optical Density at 570 nm (Kidney Fibroblast; 100 μg/ml, 72 h): 0.5363 ± 0.0158
- Optical Density at 570 nm (Kidney Fibroblast; 500 μg/ml, 24 h): 0.5895 ± 0.0253
- Optical Density at 570 nm (Kidney Fibroblast; 500 μg/ml, 48 h): 0.5418 ± 0.0221
- Optical Density at 570 nm (Kidney Fibroblast; 500 μg/ml, 72 h): 0.4731 ± 0.0249
- Optical Density at 570 nm (Kidney Fibroblast; 1000 μg/ml, 24 h): 0.5723 ± 0.0254
- Optical Density at 570 nm (Kidney Fibroblast; 1000 μg/ml, 48 h): 0.5192 ± 0.0178
- Optical Density at 570 nm (Kidney Fibroblast; 1000 μg/ml, 72 h): 0.4161 ± 0.0249
- order of inhibitory effect (Kidney Fibroblast; kidney fibroblast): AKF-PD>AKF-BR>pirfenidone
- suppression of proliferation of rat pulmonary fibroblasts [3]: could suppress proliferation of rat pulmonary fibroblasts
- Optical Density at 570 nm ([3]; 100 μg/ml, 24 h): 0.1654 ± 0.0143
- Optical Density at 570 nm ([3]; 100 μg/ml, 48 h): 0.1475 ± 0.0211
- Optical Density at 570 nm ([3]; 500 μg/ml, 24 h): 0.1342 ± 0.0237
- Optical Density at 570 nm ([3]; 500 μg/ml, 48 h): 0.1292 ± 0.0178
- Optical Density at 570 nm ([3]; 1000 μg/ml, 24 h): 0.1204 ± 0.0176
- Optical Density at 570 nm ([3]; 1000 μg/ml, 48 h): 0.1201 ± 0.0342
- order of inhibitory effect ([3]; rat pulmonary fibroblasts): AKF-PD>AKF-BR>pirfenidone
- activity inhibiting fibroblast (fibroblast): activities inhibiting fibroblast

Molecule: Cc1cccc(-n2cc(C)ccc2=O)c1 [5-methyl-1-(3′-methylphenyl)-2(1H)-pyridone]
- activity inhibiting fibroblast (fibroblast): activities inhibiting fibroblast

Molecule: Cc1ccc(=O)n(-c2cccc(I)c2)c1 [1-(3′-iodophenyl)-5-methyl-2(1H)-pyridone]
- activity inhibiting fibroblast (fibroblast): activities inhibiting fibroblast

B1: γ-interferon: γ-interferon given i.m. 50,000 unit daily to disinfected mice (protein, UniProt P01580 23-155, looked up)
Interferon gamma: HGTVIESLESLNNYFNSSGIDVEEKSLFLDIWRNWQKDGDMKILQSQIISFYLRLFEVLKDNQAISNNISVIESHLITTFFSNSKAKKDAFMSIAKFEVNNPQVQRQAFNELIRVVHQLLPESSLRKRKRSRC
- Schistosomo Egg Granuloma Area, Mean ([4]; granuloma with abundant eggs): 83706.79 μm^2
- Schistosomo Egg Granuloma Area, Mean ([4]; granuloma with few eggs): 32407.14 μm^2
